According to patent US10183950B2, “Thienopyrimidine inhibitors of atypical protein kinase C” (Cancer Research Technology Limited, priority 2011, dated 2019):

These molecules were tested against T1, full-length human PKCι (Homo sapiens, UniProt P41743) (assay: PKCι IC50 IMAP fluorescence polarisation assay, full-length enzyme). Settings: full length PKCi at 15 μM ATP; read-out: IC50 in IMAP assay against full length PKCi.
T1 construct: Recombinant, full-length human PKCι expressed in Sf21 insect cells is also commercially available; purchased; host or cells: Sf21 insect cells
T1 sequence (P41743 1-596): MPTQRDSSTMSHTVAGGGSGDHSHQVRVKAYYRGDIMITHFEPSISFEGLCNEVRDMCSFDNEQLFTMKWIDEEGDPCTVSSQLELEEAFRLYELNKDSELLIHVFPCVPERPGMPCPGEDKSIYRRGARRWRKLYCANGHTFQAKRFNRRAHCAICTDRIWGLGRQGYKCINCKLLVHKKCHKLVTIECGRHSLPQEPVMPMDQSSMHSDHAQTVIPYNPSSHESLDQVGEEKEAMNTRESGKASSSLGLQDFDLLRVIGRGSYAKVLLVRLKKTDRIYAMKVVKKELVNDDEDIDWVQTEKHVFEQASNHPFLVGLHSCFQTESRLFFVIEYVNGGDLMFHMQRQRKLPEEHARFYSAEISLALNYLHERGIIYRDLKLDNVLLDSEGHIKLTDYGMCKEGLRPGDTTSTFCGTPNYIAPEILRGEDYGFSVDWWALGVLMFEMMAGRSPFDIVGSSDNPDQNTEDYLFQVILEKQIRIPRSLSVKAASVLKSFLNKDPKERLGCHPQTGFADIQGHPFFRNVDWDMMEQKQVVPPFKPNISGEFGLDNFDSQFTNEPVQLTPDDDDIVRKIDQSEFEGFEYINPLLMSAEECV
Type: biochemical
Description: Assays are based on the ability of PKCι to phosphorylate a commercially available peptide substrate in vitro. […] Recombinant, full-length human PKCι expressed in Sf21 insect cells is also commercially available. Recombinant, kinase-domain human PKCι is expressed and purified in-house.
The procedure below explains how dose response curves for inhibitors of PKCι are obtained.
Compounds to be tested are dissolved in 100% DMSO. […] 1 μl is plated into 384 well black low-binding flat bottomed assay plates which are used immediately. Dilutions and additions of compound to assay plates are carried out using Matrix WellMate® and Matrix PlateMate® Plus liquid handling systems.
The final concentration of peptide substrate in the assay is 100 nM. […] Relevant controls are included, namely no compound and no enzyme. […] The reaction is allowed to incubate for 60 minutes at room temperature, before the reaction is stopped and developed by the addition of 20 μl IMAP™ development reagent (Molecular Devices). IMAP development reagent consists of 0.25% (v/v) IMAP progressive binding reagent, 17% (v/v) IMAP progressive binding buffer A and 3% (v/v) IMAP progressive binding buffer B. The plates are then incubated for 2 hours at room temperature before being read using an appropriate plate reader, for example a Molecular Devices HT Analyst or a BMG Pherastar.

IC50, 100 to 1000 nM:
CCCNC(=O)c1csc2c(NC[C@@H](N)Cc3ccccc3)nc(-c3ccncc3)nc12 [compound 551, 4-((S)-2-Amino-3-phenyl-propylamino)-2-pyridin-4-yl-thieno[3,2-d]pyrimidine-7-carboxylic acid propylamide]
c1cc(-c2nc(N[C@@H]3CCNC3)c3sccc3n2)cc(Nc2ccc(N3CCOCC3)cn2)n1 [compound 602, {2-[2-(5-Morpholin-4-yl-pyridin-2-ylamino)-pyridin-4-yl]-thieno[3,2-d]pyrimidin-4-yl}-(R)-pyrrolidin-3-yl-amine]
N[C@H](CNc1nc(-c2ccncc2)nc2c(-c3cn[nH]c3)csc12)Cc1ccccc1 [compound 393, (S)-3-Phenyl-N*1*-[7-(1H-pyrazol-4-yl)-2-pyridin-4-yl-thieno[3,2-d]pyrimidin-4-yl]-propane-1,2-diamine]
N[C@H](CNc1nc(-c2ccncc2)nc2ccsc12)Cc1ccccc1 [compound 314, (S)-3-Phenyl-N*1*-(2-pyridin-4-yl-thieno[3,2-d]pyrimidin-4-yl)-propane-1,2-diamine]
N[C@H](CNc1nc(-c2ccncc2)nc2c(-c3ccccc3)csc12)Cc1ccccc1 [compound 417, (S)-3-Phenyl-N*1*-(7-phenyl-2-pyridin-4-yl-thieno[3,2-d]pyrimidin-4-yl)-propane-1,2-diamine]

IC50, 10000 to 40000 nM:
Cc1nc(C)c(-c2c(C)sc3c(NC[C@@H](N)Cc4ccccc4)nc(-c4ccncc4)nc23)s1 [compound 457, (S)-N*1*-[7-(2,4-Dimethyl-thiazol-5-yl)-6-methyl-2-pyridin-4-yl-thieno[3,2-d]pyrimidin-4-yl]-3-phenyl-propane-1,2-diamine]
COc1cccc(OCC(C)C)c1-c1c(C)sc2c(NC[C@@H](N)Cc3ccccc3)nc(-c3ccncc3)nc12 [compound 455, (S)-N*1*-[7-(2-Isobutoxy-6-methoxy-phenyl)-6-methyl-2-pyridin-4-yl-thieno[3,2-d]pyrimidin-4-yl]-3-phenyl-propane-1,2-diamine]
Cc1cccc(Nc2csc3c(N[C@@H]4CCNC4)nc(-c4ccncc4F)nc23)c1 [compound 492, 2-(3-Fluoro-pyridin-4-yl)-N*4*-(R)-pyrrolidin-3-yl-N*7*-m-tolyl-thieno[3,2-d]pyrimidine-4,7-diamine]
C[C@H](N)CNc1nc(-c2ccncc2F)nc2ccsc12 [compound 353, (S)-N*1*-[2-(3-Fluoro-pyridin-4-yl)-thieno[3,2-d]pyrimidin-4-yl]-propane-1,2-diamine]

IC50, < 100 nM:
N[C@H](CNc1nc(-c2ccncc2)nc2c(C#Cc3cc[nH]n3)csc12)Cc1ccccc1 [compound 549, (S)-3-Phenyl-N*1*-[7-(1H-pyrazol-3-ylethynyl)-2-pyridin-4-yl-thieno[3,2-d]pyrimidin-4-yl]-propane-1,2-diamine]
CC#Cc1csc2c(NC[C@@H](N)Cc3ccccc3)nc(-c3ccncc3)nc12 [compound 542, (S)-3-Phenyl-N*1*-(7-prop-1-ynyl-2-pyridin-4-yl-thieno[3,2-d]pyrimidin-4-yl)-propane-1,2-diamine]
C[C@@H](O)C#Cc1csc2c(NC[C@@H](N)Cc3ccccc3)nc(-c3ccncc3)nc12 [compound 534, (R)-4-[4-((S)-2-Amino-3-phenyl-propylamino)-2-pyridin-4-yl-thieno[3,2-d]pyrimidin-7-yl]-but-3-yn-2-ol]
N[C@H](CNc1nc(-c2ccncc2)nc2c(C#CCF)csc12)Cc1ccccc1 [compound 545, (S)-N*1*-[7-(3-Fluoro-prop-1-ynyl)-2-pyridin-4-yl-thieno[3,2-d]pyrimidin-4-yl]-3-phenyl-propane-1,2-diamine]

IC50, 1000 to 10000 nM:
c1cc(-c2nc(N[C@@H]3CCNC3)c3sccc3n2)cc(NC2CC2)n1 [compound 594, [2-(2-Cyclopropylamino-pyridin-4-yl)-thieno[3,2-d]pyrimidin-4-yl]-(R)-pyrrolidin-3-yl-amine]
c1ccc(CNc2cc(-c3nc(N[C@@H]4CCNC4)c4sccc4n3)ccn2)cc1 [compound 598, [2-(2-Benzylamino-pyridin-4-yl)-thieno[3,2-d]pyrimidin-4-yl]-(R)-pyrrolidin-3-yl-amine]
Cc1[nH]ncc1-c1nc(NC[C@@H](N)Cc2ccccc2)c2sccc2n1 [compound 634, (S)-N*1*-[2-(5-Methyl-1H-pyrazol-4-yl)-thieno[3,2-d]pyrimidin-4-yl]-3-phenyl-propane-1,2-diamine]
CC[C@H](Nc1cc(-c2nc(N[C@@H]3CCNC3)c3sccc3n2)ccn1)c1ccccc1 [compound 589, {2-[2-((S)-1-Phenyl-propylamino)-pyridin-4-yl]-thieno[3,2-d]pyrimidin-4-yl}-(R)-pyrrolidin-3-yl-amine]
Cc1sc2c(NC[C@@H](N)Cc3ccccc3)nc(-c3ccncc3)nc2c1-c1ccccc1 [compound 449, (S)-N*1*-(6-Methyl-7-phenyl-2-pyridin-4-yl-thieno[3,2-d]pyrimidin-4-yl)-3-phenyl-propane-1,2-diamine]
N#Cc1ccc(Nc2cc(-c3nc(N[C@@H]4CCNC4)c4sccc4n3)ccn2)cc1 [compound 607, 4-{4-[4-((R)-Pyrrolidin-3-ylamino)-thieno[3,2-d]pyrimidin-2-yl]-pyridin-2-ylamino}-benzonitrile]
Cc1sc2c(NCC(C)N)nc(-c3ccncc3)nc2c1Br (stereo in doubt) [compound 330, (R)-N*1*-(7-Bromo-6-methyl-2-pyridin-4-yl-thieno[3,2-d]pyrimidin-4-yl)-propane-1,2-diamine]
Cc1ccc(-c2csc3c(NC[C@@H](N)Cc4ccccc4)nc(-c4ccncc4)nc23)o1 [compound 412, (S)-N*1*-[7-(5-Methyl-furan-2-yl)-2-pyridin-4-yl-thieno[3,2-d]pyrimidin-4-yl]-3-phenyl-propane-1,2-diamine]
CC(C)(C)c1sc2c(NC[C@@H](N)Cc3ccccc3)nc(-c3ccncc3)nc2c1-c1ccn[nH]1 [compound 468, (S)-N*1*-[6-tert-Butyl-7-(2H-pyrazol-3-yl)-2-pyridin-4-yl-thieno[3,2-d]pyrimidin-4-yl]-3-phenyl-propane-1,2-diamine]

Same assay, conditions: full length PKCi at 15 μM ATP; read-out: IC50 in IMAP assay against full length PKCi (Activity)

IC50, 1000 to 10000 nM:
N[C@H](CNc1nc(-c2ccncc2)nc2sc3c(c12)CCN(C(=O)c1ccccc1)C3)Cc1ccccc1 [compound 72, [4-((S)-2-Amino-3-phenyl-propylamino)-2-pyridin-4-yl-5,8-dihydro-6H-pyrido[4′,3′:4,5]thieno[2,3-d]pyrimidin-7-yl]-phenyl-methanone]
N[C@H](CNc1nc(-c2ccncc2)nc2sc3c(c12)CCCC3)Cc1ccc(F)cc1 [compound 50, (S)-3-(4-Fluoro-phenyl)-N*1*-(2-pyridin-4-yl-5,6,7,8-tetrahydro-benzo[4,5]thieno[2,3-d]pyrimidin-4-yl)-propane-1,2-diamine]

IC50, 100 to 1000 nM:
Cc1cccc(C[C@H](N)CNc2nc(-c3ccncc3)nc3sc4c(c23)CCCC4)c1 [compound 48, (S)-N*1*-(2-Pyridin-4-yl-5,6,7,8-tetrahydro-benzo[4,5]thieno[2,3-d]pyrimidin-4-yl)-3-m-tolyl-propane-1,2-diamine]

IC50, 10000 to 40000 nM:
CC(C)CN1CCc2c(sc3nc(-c4ccncc4)nc(NCCN)c23)C1 [compound 114, N*1*-(7-Isobutyl-2-pyridin-4-yl-5,6,7,8-tetrahydro-pyrido[4′,3′:4,5]thieno[2,3-d]pyrimidin-4-yl)-ethane-1,2-diamine]
CC1(C)CCc2c(sc3nc(-c4ccncc4)nc(NC[C@@H](N)Cc4ccccc4)c23)C1 [compound 77, (S)-N*1*-(7,7-Dimethyl-2-pyridin-4-yl-5,6,7,8-tetrahydro-benzo[4,5]thieno[2,3-d]pyrimidin-4-yl)-3-phenyl-propane-1,2-diamine]
C[C@H](N)CNc1nc(-c2ccncc2)nc2sc3c(c12)CCN(C(=O)OC(C)(C)C)C3 [compound 96, 4-((S)-2-Amino-propylamino)-2-pyridin-4-yl-5,8-dihydro-6H-pyrido[4′,3′:4,5]thieno[2,3-d]pyrimidine-7-carboxylic acid tert-butyl ester]
